# Measurements from patent publication US20250215030A1, “STAT MODULATORS AND USES THEREOF” (Recludix Pharma, Inc., priority 2022, published 2025).
# Target: T1, pSTAT3 (pY705-STAT3) (Homo sapiens, UniProt P40763)
# T1 construct: host or cells: cryopreserved PBMC
# Test: MSD-pSTAT-PBMC Assay (pSTAT3, IL-6 stimulated)
# Type: cell-based
# Details: not given
# Outline: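 Human PBMCs (50,000 cells/well for STAT3, 25,000 for STAT6) treated with compound 3 h, then stimulated 10 min with 10 ng/mL IL-6 or 1 ng/mL IL-4. Lysate pSTAT3 (pY705) or pSTAT6 (pY641) measured by MSD sandwich electrochemiluminescence. Signal minus unstimulated, normalized to DMSO; IC50 by variable-slope nonlinear regression.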
# T1 sequence (P40763 whole entry): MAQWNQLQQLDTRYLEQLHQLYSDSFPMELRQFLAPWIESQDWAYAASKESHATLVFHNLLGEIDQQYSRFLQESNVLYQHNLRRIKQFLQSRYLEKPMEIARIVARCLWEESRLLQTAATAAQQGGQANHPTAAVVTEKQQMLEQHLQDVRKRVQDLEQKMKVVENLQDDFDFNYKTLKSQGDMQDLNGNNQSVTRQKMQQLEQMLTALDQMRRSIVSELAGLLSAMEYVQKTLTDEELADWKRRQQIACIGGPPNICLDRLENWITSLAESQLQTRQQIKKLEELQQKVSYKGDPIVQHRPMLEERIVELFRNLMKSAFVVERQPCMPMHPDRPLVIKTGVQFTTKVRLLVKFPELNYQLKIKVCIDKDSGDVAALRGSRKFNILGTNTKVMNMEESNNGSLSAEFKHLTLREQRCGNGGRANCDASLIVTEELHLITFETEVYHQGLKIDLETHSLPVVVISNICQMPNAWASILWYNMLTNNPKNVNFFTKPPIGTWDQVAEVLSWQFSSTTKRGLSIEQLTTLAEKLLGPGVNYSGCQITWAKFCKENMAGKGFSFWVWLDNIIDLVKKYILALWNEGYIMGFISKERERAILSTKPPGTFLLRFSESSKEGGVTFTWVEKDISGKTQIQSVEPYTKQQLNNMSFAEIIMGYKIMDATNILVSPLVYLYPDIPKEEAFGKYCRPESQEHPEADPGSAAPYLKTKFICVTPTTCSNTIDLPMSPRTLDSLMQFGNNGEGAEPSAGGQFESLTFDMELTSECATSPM
row,SMILES,IC50 [nM]
1,"CCCOC(=O)[C@H](C)NP(=O)(Oc1ccccc1)C(F)c1ccc2sc(C(=O)N[C@H]3C[C@@H]4C[C@@H]4C[C@H]4CC[C@@H](C(=O)N5CC(N6CCS(=O)(=O)CC6)C5)N4C3=O)cc2c1 (stereo partly drawn) [Compound 310, propyl(((2-(((3S,6S,7aS,8aR,9aR)-3-(3-(1,1-dioxidothiomorpholino)azetidine-1-carbonyl)-5-oxodecahydro-1H-cyclopropa[d]pyrrolo[1,2-a]azocin-6-yl)carbamoyl)benzo[b]thiophen-5-yl)fluoromethyl)(phenoxy)phosphoryl)-L-alaninate]",> 3000
2,"CCCOC(=O)[C@H](C)N[P@@](=O)(Oc1ccccc1)[C@H](F)c1ccc2sc(C(=O)N[C@H]3C[C@@H]4C[C@@H]4C[C@H]4CC[C@@H](C(=O)N5CC(c6cnccc6N(C)C)C5)N4C3=O)cc2c1 (stereo in doubt) [Compound 415, propyl((R)-((R)-(2-(((3S,6S,7aS,8aR,9aR)-3-(3-(4-(dimethylamino)pyridin-3-yl)azetidine-1-carbonyl)-5-oxodecahydro-1H-cyclopropa[d]pyrrolo[1,2-a]azocin-6-yl)carbamoyl)benzo[b]thiophen-5-yl)fluoromethyl)(phenoxy)phosphoryl)-L-alaninate]",< 100
3,"CCCOC(=O)[C@H](C)NP(=O)(Oc1ccccc1)[C@H](F)c1ccc2sc(C(=O)N[C@H]3C[C@@H]4C[C@@H]4C[C@H]4CC[C@@H](C(=O)N5CC(c6cnccc6N6CC[C@H]6COC)C5)N4C3=O)cc2c1 (stereo partly drawn) [Compound 416, propyl(((S)-fluoro(2-(((3S,6S,7aS,8aR,9aR)-3-(3-(4-((S)-2-(methoxymethyl)azetidin-1-yl)pyridin-3-yl)azetidine-1-carbonyl)-5-oxodecahydro-1H-cyclopropa[d]pyrrolo[1,2-a]azocin-6-yl)carbamoyl)benzo[b]thiophen-5-yl)methyl)(phenoxy)phosphoryl)-L-alaninate]",< 100
4,"O=C(N[C@H]1C[C@@H]2C[C@@H]2C[C@H]2CC[C@@H](C(=O)N3CC(C(=O)N4CCOCC4)C3)N2C1=O)c1cc2cc(C(F)(F)P(=O)(N[C@@H](CCc3ccccc3)C(=O)OCc3ccccc3)Oc3ccccc3)ccc2s1 (stereo partly drawn) [Compound 159, benzyl (2S)-2-(((difluoro(2-(((3S,6S,7aS, 8aR,9aR)-3-(3-(morpholine-4-carbonyl)azetidine-1-carbonyl)-5-oxodecahydro-1H-cyclopropa[d]pyrrolo[1,2-a]azocin-6-yl)carbamoyl)benzo[b]thiophen-5-yl)methyl) (phenoxy)phosphoryl)amino)-4-phenylbutanoate]",> 3000
5,"CCCOC(=O)[C@H](C)NP(=O)(Oc1ccccc1)C(F)c1ccc2sc(C(=O)N[C@H]3C[C@@H]4C[C@@H]4C[C@H]4CC[C@@H](C(=O)N5CC(c6cc(C(F)F)on6)C5)N4C3=O)cc2c1 (stereo partly drawn) [Compound 381, propyl(((2-(((3S,6S,7aS,8aR,9aR)-3-(3-(5-(difluoromethyl)isoxazol-3-yl)azetidine-1-carbonyl)-5-oxodecahydro-1H-cyclopropa[d]pyrrolo[1,2-a]azocin-6-yl)carbamoyl)benzo[b]thiophen-5-yl)fluoromethyl)(phenoxy)phosphoryl)-L-alaninate]",< 100
6,"CCCOC(=O)[C@H](C)NP(=O)(Cc1ccc2sc(C(=O)N[C@H]3C[C@H]4C[C@H]4CC4CC[C@@H](C(=O)N[C@H]5CN(C(C)=O)C[C@@H]5F)N4C3=O)cc2c1)Oc1ccccc1 (stereo partly drawn) [Compound 245, propyl(((2-(((3S,6S,7aR,8aS,9aR)-3-(((3S,4S)-1-acetyl-4-fluoropyrrolidin-3-yl)carbamoyl)-5-oxodecahydro-1H-cyclopropa[d]pyrrolo[1,2-a]azocin-6-yl)carbamoyl)benzo[b]thiophen-5-yl)methyl)(phenoxy)phosphoryl)-L-alaninate]",1000 to 3000
7,"CCCOC(=O)[C@H](C)N[P@](=O)(Oc1ccccc1)C(F)c1ccc2sc(C(=O)N[C@H]3C[C@@H]4C[C@@H]4C[C@H]4CC[C@@H](C(=O)N5CC(c6cnccc6N(C)C)C5)N4C3=O)cc2c1 (stereo partly drawn) [Compound 418, propyl((R)-((S)-(2-(((3S,6S,7aS,8aR,9aR)-3-(3-(4-(dimethylamino)pyridin-3-yl)azetidine-1-carbonyl)-5-oxodecahydro-1H-cyclopropa[d]pyrrolo[1,2-a]azocin-6-yl)carbamoyl)benzo[b]thiophen-5-yl)fluoromethyl)(phenoxy)phosphoryl)-L-alaninate]",< 100

# Same assay, conditions: PBMC, compound 3 hrs, then 10 ng/mL IL-6 for 10 min; MSD pY705-STAT3; read-out: pSTAT3
row,SMILES,IC50 [nM]
1,"CC(C)(C)C(=O)SCCOP(=O)(OCCSC(=O)C(C)(C)C)C(F)c1ccc2sc(C(=O)N[C@H]3C[C@@H]4C[C@@H]4C[C@H]4CC[C@@H](C(=O)N5CC(c6cnccc6F)C5)N4C3=O)cc2c1 (stereo partly drawn) [Compound 306, S,S′-((((fluoro(2-(((3S,6S,7aS,8aR,9aR)-3-(3-(4-fluoropyridin-3-yl)azetidine-1-carbonyl)-5-oxodecahydro-1H-cyclopropa[d]pyrrolo[1,2-a]azocin-6-yl)carbamoyl)benzo[b]thiophen-5-yl)methyl)phosphoryl)bis(oxy))bis(ethane-2,1-diyl))bis(2,2-dimethylpropanethioate)]",< 100
2,"CC(C)C[C@H](NP(=O)(Oc1ccccc1)C(F)(F)c1ccc2sc(C(=O)N[C@H]3C[C@@H]4C[C@@H]4C[C@H]4CC[C@@H](C(=O)N5CC(C(=O)N6CCOCC6)C5)N4C3=O)cc2c1)C(=O)OCc1ccccc1 (stereo partly drawn) [Compound 163, benzyl ((difluoro(2-(((3S,6S,7aS, 8aR,9aR)-3-(3-(morpholine-4-carbonyl)azetidine-1-carbonyl)-5-oxodecahydro-1H-cyclopropa[d]pyrrolo[1,2-a]azocin-6-yl)carbamoyl)benzo[b]thiophen-5-yl)methyl) (phenoxy)phosphoryl)-L-leucinate]",1000 to 3000
3,"CC(C)(C)C(=O)SCCOP(=O)(OCCSC(=O)C(C)(C)C)C(F)(F)c1ccc2sc(C(=O)N[C@H]3C[C@@H]4C[C@@H]4C[C@H]4CC[C@@H](C(=O)N5CC(c6cnccc6F)C5)N4C3=O)cc2c1 [Compound 308, S,S′-((((difluoro(2-(((3S,6S,7aS,8aR,9aR)-3-(3-(4-fluoropyridin-3-yl)azetidine-1-carbonyl)-5-oxodecahydro-1H-cyclopropa[d]pyrrolo[1,2-a]azocin-6-yl)carbamoyl)benzo[b]thiophen-5-yl)methyl)phosphoryl)bis(oxy))bis(ethane-2,1-diyl))bis(2,2-dimethylpropanethioate)]",< 100
4,"CCCOC(=O)[C@H](C)NP(=O)(Oc1ccccc1)C(F)c1ccc2sc(C(=O)N[C@H]3C[C@@H]4C[C@@H]4C[C@H]4CC[C@@H](C(=O)N5CC(c6ccon6)C5)N4C3=O)cc2c1 (stereo partly drawn) [Compound 316, propyl ((fluoro(2-(((3S,6S,7aS,8aR,9aR)-3-(3-(isoxazol-3-yl)azetidine-1-carbonyl)-5-oxodecahydro-1H-cyclopropa[d]pyrrolo[1,2-a]azocin-6-yl)carbamoyl)benzo[b]thiophen-5-yl)methyl)(phenoxy)phosphoryl)-L-alaninate]",< 100
5,"CC(C)OC(=O)[C@H](Cc1ccccc1)NP(=O)(Cc1ccc2sc(C(=O)N[C@H]3C[C@@H]4C[C@@H]4C[C@H]4CC[C@@H](C(=O)N5CC(C(=O)N6CCOCC6)C5)N4C3=O)cc2c1)Oc1ccccc1 (stereo partly drawn) [Compound 134, isopropyl (((2-(((3S,6S,7aS, 8aR,9aR)-3-(3-(morpholine-4-carbonyl)azetidine-1-carbonyl)-5-oxodecahydro-1H-cyclopropa[d]pyrrolo[1,2-a]azocin-6-yl)carbamoyl)benzo[b]thiophen-5-yl)methyl) (phenoxy)phosphoryl)-L-phenyl-alaninate]",100 to 1000
